Experimental data from patent US8835644B2, “Broad spectrum benzothiophene-nitrothiazolide and other antimicrobials” (University of Virginia Patent Foundation, priority 2009, dated 2014).
≈ marks a conversion by molar mass, not a printed value. Read-outs that look alike come from different tables or passages of the source.

Experiments:
[1] = system: H. pylori; experiment: MIC testing by broth dilution, H. pylori; type: cell-based, Helicobacter pylori
Procedure, shortened: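 Broth dilution MIC determination against H. pylori: a standard inoculum in 100 microliters of Brain Heart Infusion medium was placed in 96 well microplates. Test compounds began at 32 μg/ml in 200 microliters in well one and were serially diluted over a 32 to 0.06 range. After 24 h, plates were scored by eye and the first well without growth was recorded as the MIC.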

[2] = system: S. epidermidis; experiment: MIC testing by broth dilution, S. epidermidis plank; type: cell-based, Staphylococcus epidermidis
Procedure, shortened: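 Planktonic E. coli (LB) and S. epidermidis (Trypticase Soy), plus C. jejuni (Brain Heart Infusion), were exposed to a dilution series starting at 32 μg/ml. The C. difficile values are anaerobic zone ratios against NTZ.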

[3] = system: E. coli biofilm; experiment: E. coli biofilm assay (activity tables); type: cell-based, Escherichia coli
Procedure, shortened: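 After 24 h static culture at 37 °C in wells containing NTZ, strain 042 (1:100 inoculum) biofilm was quantified by 0.5% crystal violet absorbance at 570 nm. Planktonic growth was taken from turbidity or LB plate counts as cfu/ml; all runs triplicate, reported as mean and SD.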

[4] = system: S. aureus and S. epidermidis strains; experiment: MIC by microdilution in TSB, staphylococcal strains; type: cell-based, Staphylococcus epidermidis; details: Staphylococcus aureus; staphylococcal strains incl. MRSA S. aureus, microdilution in TSB; read-out: MIC
Protocol: (§1) Minimal inhibitory concentration testing of NTZ was done in sterile round bottom 96 well microtiter polystyrene plates (Corning Inc., Corning, N.Y.) by microdilution. Tizoxanide TIZ (deacetylated form of NTZ), denitro-NTZ (TIZ without 5-nitro group) and amoxanide AMIX (TIZ-ethylamine) were also tested. Bacteria were grown overnight and suspended in fresh TSB to an OD600 of 0.01 and 100 μl were dispensed into wells with the first well containing 200 μA NTZ and other antibiotics (DMSO control) were added to well one and serially diluted from 32 μg/ml. All compounds were tested in triplicate and plates were read visually or with a plate reader (Molecular Devices) at 8, 12 and at 24 h. MIC was determined as the first well in which no visible bacterial growth was noted relative to controls. Drug effects on aerobic growth were determined in 125 ml flasks containing 25 ml of TSB medium and following inoculation (detailed above), flasks were on a gyrorotary shaker (200 rpm) at 37° C. Final concentrations of NTZ were 0, 10 and 25 μg/ml and samples were removed at hourly intervals and absorbance determined at 600 nm.

[5] = system: S. epidermidis; experiment: Aerobic growth of S. epidermidis in shaken TSB flasks; type: cell-based, Staphylococcus epidermidis
Protocol: as §1

[6] = system: S. haemolyticus strain 33208; experiment: Biofilm determination, crystal violet, S. haemolyticus; type: cell-based; details: Staphylococcus haemolyticus; S. haemolyticus strain 33208, crystal violet; read-out: IC50 biofilm production
Protocol: Staphylococcal strains were cultured overnight in TSB at 37° C. with shaking, diluted in fresh medium to an OD600 of 0.01 and 200 W was dispensed into sterile flat bottom polystyrene 96 well microtiter plates (Costar 3596, Corning Inc.). […] Each compound and dilution was tested in triplicate. The plates were incubated overnight at 37° C. in a humidified incubator, without shaking and both growth and biofilm accumulation were determined at 16 h.
Following recording of turbidities, the culture medium was aspirated and the wells were washed three times with distilled water, blotted on paper towels, and fixed with 75% ethanol for 10 minutes.
To visualize biofilm material, 0.5% crystal violet was added to each well and after 5 minutes was removed and the wells washed three times with distilled water. Plates were read using a microplate reader at a wavelength of 570 nm. The dye was then extracted by adding 200 W of 95% ethanol, and the absorbance was read again at 570 nm. All assays were performed in triplicate and the mean and standard deviation determined. Generally, the ethanol-solubilized crystal violet was more reliable and these determinations are reported throughout.

[7] = system: S. epidermidis 9142; experiment: Catheter adherence model; type: cell-based, Staphylococcus epidermidis; details: 24 h, dose dependent, within the IC50 range
Protocol: An overnight culture of S. epidermidis 9142 was used to inoculate fresh TSB medium to a final OD600 of 0.01 in a volume of 3 ml in 15 ml screw capped tubes. Sterile sheets of polyurethane were divided into 1 cm square pieces and placed into tubes containing different concentrations of NTZ or controls containing DMSO. The tubes were incubated for 24 h with shaking. Each catheter portion was washed 3 times with sterile PBS, suspended in 4 ml sterile PBS and sonicated for 10 min in a sonic water bath. 10 μl of the sonicated fluid was diluted in fresh PBS and plated onto TSA plates and incubated at 37° C. overnight. Bacteria were enumerated (triplicate plates) and the mean and standard deviation were determined and reported as CFU/ml. Viability effects were corrected for by plating the supernatants from the 3 ml experiment for total bacterial counts.

[8] = system: S. epidermidis 9142; experiment: Biofilm dispersal assay; type: cell-based, Staphylococcus epidermidis; details: drug added to 4 h biofilm
[9] = system: S. epidermidis strain 9142; experiment: Effect of zinc on the action of NTZ (biofilm and MIC); type: cell-based, Staphylococcus epidermidis; details: zinc 20 μM, read at 8 h
Protocol: […] As a control, ZnCl2 was added to untreated bacteria. Additional controls included testing of 10 μM CaCl2 and MgCl2 in the same format. The inhibitory effect of EDTA on biofilm production and its reversibility by Zn^2+ was also assessed as described for NTZ.

## CC(=O)Oc1ccccc1C(=O)Nc1ncc([N+](=O)[O-])s1 [Nitazoxanide, 2-(acetyloxy)-N-(5-nitro-2-thiazolyl)benzamide, reference compound]
[1]; 2-amino-3,5-dinitrothiophene analogues table, read-out: MIC H. pylori
  MIC: 13.0 µM (≈ 3.99 µg/mL)
[1]; Helicobacter pylori, Furan analogues table, read-out: MIC H. pylori
  MIC: 13 µM (≈ 3.99 µg/mL)
[1]; Helicobacter pylori, broth dilution, Brain Heart Infusion, 24 h, read-out: MIC (μM) H. pylori
  MIC: 13 µM (≈ 3.99 µg/mL)
[1]; Thiophene analogues table, read-out: MIC H. pylori
  MIC: 13.0 µM (≈ 3.99 µg/mL)
[2]; Staphylococcus epidermidis, broth dilution, Trypticase Soy, 24 h, read-out: MIC (μM) S. epidermidis Plank
  MIC: 52.1 µM (≈ 16 µg/mL)
[2]; planktonic, 2-amino-3,5-dinitrothiophene analogues table, read-out: MIC S. epidermidis Plank
  MIC: 52.1 µM (≈ 16 µg/mL)
[2]; planktonic, Thiophene analogues table, read-out: MIC S. epidermidis Plank
  MIC: 52.1 µM (≈ 16 µg/mL)
[3]; Escherichia coli, biofilm, Furan analogues table, read-out: MIC E. coli Biofilm
  MIC: 26 µM (≈ 7.99 µg/mL)
[3]; Escherichia coli, read-out: MIC (μM) E. coli Biofilm
  MIC: 26 µM (≈ 7.99 µg/mL)
[3]; biofilm, 2-amino-3,5-dinitrothiophene analogues table, read-out: MIC E. coli Biofilm
  MIC: 26.0 µM (≈ 7.99 µg/mL)
[3]; biofilm, Thiophene analogues table, read-out: MIC E. coli Biofilm
  MIC: 26.0 µM (≈ 7.99 µg/mL)
[4]
  MIC: 8 to 16 µg/mL (≈ 26 to 52.1 µM)
[5]; 10 μg/ml
  Effect on exponential growth rates: little effect on exponential growth rates
[5]; 25 μg/ml
  Inhibition of growth in liquid culture under vigorous aeration: significant inhibition
[6]
  IC50: 2.5 µg/mL (≈ 8.14 µM)
[7]
  Attachment to catheter material: inhibited attachment
[8]
  Dispersal of preformed biofilm: not dispersive
[9]
  Effect of Zn2+ on the growth inhibitory action (MIC): no effect
